Laboratory results reported in patent publication US4542153A, “Methods for changing calcium metabolism within the cells of a mammal” (The Ohio State University Research Foundation, priority 1983, dated 1985).

What was measured:
[1] = test system: calcium-induced arrhythmias in rats; assay: Calcium-induced arrhythmias (CaCl2 injected i.v. into anesthetized rats); details: for potency and safety against calcium-induced arrhythmia versus verapamil: earlier work of applicants; for concentration effective against calcium-induced arrhythmias / deleterious side effects: i.v.; for concentration effective against calcium-induced arrhythmias: 10 min before CaCl2; for deleterious side effects: Q-bu-MDI at 0.5 mg/kg, pr-MDI and bu-MDI at 3.75 mg/kg
Source text: The experimental method used was that described in Lynch J. J., Rahwan R. G., Witiak D. T.: Effects of 2-substituted-3-dimethylamino-5,6-methylenedioxyindenes on calcium-inducedarrhythmias, J. Cardiovasc. Pharmacol. 3: 49-60 (1981). Male Sprague-Dawley rats weighing 180-250 grams were anesthetized with sodium pentobarbital and a cannula was inserted into the left jugular vein for drug administration. Electrocardiograph equipment was connected to the rat and the lead II was continuously monitored. The compound under test, dissolved in 5% dextrose solution, was administered into the jugular vein of anesthetized rats over a 40 second period. Ten minutes after this treatment, an acute dose of 1 ml/kg of a 10% CaCl2.2H2 O solution was injected into the jugular vein over a period of 10 seconds. The arrhythmias resulting from the calcium administration were graded according to the following criteria: (a) initial change in heart rate following calcium administration; (b) incidences of sinoatrial block, atrioventricular block, ectopic beats, and ventricular flutter and fibrillation; (c) time required for reversion to control ECG; and (d) incidence of mortality.

[2] = test system: chloroform anoxia arrhythmia in mice; assay: Chloroform Anoxia Assay (chloroform-induced ventricular fibrillation); assay type: in vivo, Female Swiss albino mice; details: for Therapeutic Index (LD50/ED50): ED50 from chloroform anoxia, LD50 i.p.; for potency against chloroform/anoxia-induced arrhythmia versus quinidine: earlier work of applicants; for ED50: i.p., 10 min before chloroform, table: mean values and 95% confidence limits; for Antiarrhythmic Potency: quinidine = 1.00, chloroform anoxia
Method: The same four compounds were tested for their ability to protect mice from chloroform anoxia by the classical chloroform inhalation procedure described in Lawson J. W.: Antiarrhythmic activity of some isoquinoline derivatives determined by a rapid screening procedure in the mouse, J. Pharmacol. Exp. Ther. 160: 22-31, (1968). In this method, chloroform inhalation leading to respiratory arrest produces ventricular fibrillation. Female Swiss albino mice procured from Laboratory Supply Company, Indianapolis, Indiana, weighing 16-22 g, were pretreated intraperitoneally with the compound under test dissolved in a 5% dextrose solution 10 minutes before exposure to chloroform in a closed container containing chloroform-saturated cotton. The mice were removed from the chloroform atmosphere immediately after respiratory arrest and the electrocardiograph lead II monitored. The ED 50 and 95% confidence limits calculated for the anti-arrhythmic agents by the standard method of Litchfield and Wilcoxon.

[3] = test system: mice; assay: Toxicity Tests (intraperitoneal LD50); assay type: in vivo; details: i.p., table: mean values and 95% confidence limits
[4] = test system: isolated left atria; assay: Effects on isolated guinea pig atria: electrically driven left atria; assay type: cell-based
Source text: (§1) The effects of pr-MDI, bu-MDI and Q-bu-MDI on the mechanical and electrical behavior of isolated guinea pig atria were investigated by the method of H. Nawrath, J. Pharmacol. Exp. Ther., 16, 176-182 (1980). The compounds were investigated over the concentration range of 10^-8 to 3×10^-4 M.
(§2) English short-haired guinea pigs, supplied by Carr Animal Supply, of Powell, Ohio, weighing 300-600 g. were killed by a blow on the head and both atria of the animal were quickly dissected out and suspended in a water-jacketed organ bath containing Krebs-Henseleit solution through which a 95% oxygen/5% carbon dioxide mixture was bubbled at 32° C. The solution contained 6.92 g/l of sodium chloride, 0.35 g/l of potassium chloride, 0.29 g/l of magnesium […] heptahydrate, 0.3 g/l of calcium chloride dihydrate, 0.16 g/l of potassium dihydrogen phosphate, 2.1 g/l of sodium bicarbonate and 2.1 g/l of dextrose. The contractile force generated by the isolated artria was recorded isometrically under a 500 mg. preload using a Narco Biosystems force transducer connected to a physiograph DMP-4B recorder, both the transducer and the recorder being obtained from E & M Instrument Co. of Houston, Texas.
The isolated left atria were electrically driven by square wave impulses of 3 milliseconds duration at a frequency of 3 Hz. and a voltage of twice the threshold voltage, delivered by a Grass S9 stimulator obtained from Grass Instrument Co., of Quincy, Massachusetts. Two platinum electrodes were used for the stimulation, the anode being in direct contact with the atrial tissue while the cathode had the form of a ring suspended 2.5 centimeters above the anode. Before redetermination of the threshold voltage and generation of a predrug (control) frequency-force profile over the range of 1-5 Hz., an equilibriation time of one hour was allowed. The system was then re-equilibriated at 3 Hz. and twice the threshold voltage as before, then one cumulative dose-response curve of contractile force for one test compound was obtained, followed immediately by redetermination of the threshold voltage and the generation of a post-drug frequency-force profile.
A paired Student's t-test was used to compare predrug and postdrug threshold voltages for each left atrial preparations as well as to compare developed tension at each frequency in the profile of each left atrial preparation. P values of less than 0.05 were considered statistically significant.

[5] = test system: spontaneously beating right atria; assay: Effects on isolated guinea pig atria: spontaneously beating right atria; assay type: cell-based
Source text: as §1, §2
Spontaneously beating right atria were tested in a similar manner.

[6] = test system: thoracic aorta strips contracted with norepinephrine; assay: Vasodilator activity: norepinephrine-contracted aortic strips; assay type: cell-based, male Sprague-Dawley rats; details: for relaxation of the aortic tissue: norepinephrine- or KCl-treated tissue; for comparative vasodilator activity, norepinephrine-treated tissue: norepinephrine-treated aortic tissue; for IC50: rat aorta contracted with 10^-7 M norepinephrine, read-out: IC50 (mean and range of SEM) Norepinephrine
Source text: (§3) Pr-MDI, bu-MDI, Q-bu-MDI and the compounds of Formulae IIIA, IIIB and IVA having the two R1 groups together forming a methylene group, each R3 a methyl group and R2 an n-propyl group or n-butyl group (the compounds of Formula III are hereinafter abbreviated as sat-pr-MDI and sat-bu-MDI respectively, reference being made where necessary to the cis isomer of Formula III A or the trans isomer of Formula III B while the compounds of Formula IV are similarly referred to as cis sat-Q-pr-MDI and cis sat-Q-bu-MDI) were tested for vasodilator activity by the method of R. F. Furchgott and S. Bhadrakom, J. P. Pharmacol. Ex. Ther., 108, 129-143 (1953).
(§4) The vasodilator activity tests were conducted on male Sprague-Dawley rats, obtained from Harlan Industries, Inc., Cumberland, Indiana. The rats, weight 250-300 g., were sacrified by cervical dislocation and a 2.5 cm. segment of the thoracic aorta was removed and rinshed in physiological buffer. Each aortic segment was cleaned of connective tissue and cut spirally two yield to strips, each 3 by 15 mm. Each strip was mounted isometrically under a tension of 1 g in a 10 ml. tissue bath thermostatically maintained at 37° C. and containing a normal physiological solution aerated with a 95% oxygen/5% carbon dioxide mixture. Forces generated by the strip were monitored using a Grass FT03 isometric transducer coupled to a Grass module 7D polygraph recorder, both the transducer and the recorder being obtained from Grass Instrument Co., of Quincy, Mass.
(§5) After the aortic tissue had been allowed to equilibriate for 1-1.5 hours in the normal physiologic solution, tissue contraction was induced by introducing either 10^-7 M norepinephrine or 40mM potassium chloride buffer to the tissue bath.
(§6) To avoid interference by loss of tension due to time dependent tissue fatigue, separate preliminary experiments were performed to determine the degree of tissue relaxation due to such fatigue and the value of the control tension generated by norepinephrine or potassium chloride prior to the addition of the test compounds was adjusted whenever the duration of the experiment was such that fatigue could be expected to cause more than a 6% loss of tension. […] All concentrations mentioned hereinafter represent the final concentration of the test compound after dilution in the tissue bath.
(§7) The figures of concentration against percent response data obtained from each aortic tissue were transformed to its appropriate probit value and IC50 values were then estimated using linear regression analysis. The normal physiological solution contained 6.9 g/l of sodium chloride, 0.35 g/l of potassium chloride, 0.11 g/l of magnesium chloride hexahydrate, 0.138 g/l of sodium dihydrogen phosphate, 2.1 g/l of sodium bicarbonate, 0.01 g/l of EDTA, 0.368 g/l of calcium chloride dihydrate and 2.0 g/l of dextrose. The high potassium buffers were obtained by substituting potassium chloride for sodium chloride on an equimolar basis to maintain tonicity.

[7] = test system: thoracic aorta strips contracted with potassium chloride; assay: Vasodilator activity: potassium chloride-contracted aortic strips; assay type: cell-based, male Sprague-Dawley rats; details: rat aorta contracted with 40 mM potassium chloride; read-out: IC50 (mean and range of SEM) KCl
Source text: as §3, §4, §5, §6, §7

[8] = tested acutely and subchronically; earlier published work; cited from earlier work

SMILES: CCCCC1=Cc2cc3c(cc2C1N(C)C)OCO3.Cl (stereo not drawn) [bu-MDI, 2-butyl-5-6methylenedioxyindene-1-dimethylammonium hydrochloride, reference compound]
- potency and safety against calcium-induced arrhythmia versus verapamil [1]: more potent and safer then verapamil
- concentration effective against calcium-induced arrhythmias [1]: 3.75 mg/kg
- deleterious side effects [1]: without deleterious side effects
- Therapeutic Index (LD50/ED50) [2]: 4.2
- potency against chloroform/anoxia-induced arrhythmia versus quinidine [2]: more potent than quinidine
- ED50 ([2]; n = 40, hydrochloride, 10 min): 44 mg/kg
- ED50 ([2]; n = 40, listed as Bu--MDI, hydrochloride, 10 min): 44.0 mg/kg
- Antiarrhythmic Potency [2]: 1.52
- LD50 [3]: 185 mg/kg
- effect on frequency-force profile/relation of the stimulated left atrium ([4]; 3×10^-4 M): significant depression of the frequency-force profile
- effect on threshold voltage required to drive the atria ([4]; 3×10^-4 M): significantly decreased the threshold voltage
- effect on contractile force of the electrically stimulated left atrium ([4]; 10^-8 to 3×10^-4 M): considerably greater than that of Q-bu-MDI
- time to sustained peak effect, right atria, highest concentrations ([5]; 10^-4 M and 3×10^-4 M): 5 to 10 min
- effect on spontaneous atrial rate ([5]; 10^-8 to 3×10^-4 M): substantially identical to that of Q-bu-MDI
- effect on the contractile force of right atria ([5]; except at 3×10^-4 M for Q-bu-MDI): much greater negative inotropy
- relaxation of the aortic tissue [6]: relaxed the aortic tissue
- comparative vasodilator activity, norepinephrine-treated tissue [6]: considerably more active than Q-bu-MDI
- IC50 [6]: 74.1 µM
- IC50 [7]: 20.3 µM
- toxicity [8]: remarkable lack of toxicity

SMILES: CCCC1=Cc2cc3c(cc2C1N(C)C)OCO3.Cl (stereo not drawn) [pr-MDI, 2-propyl-5,6-methylenedioxyindene-1-dimethylammonium chloride, reference compound]
- potency and safety against calcium-induced arrhythmia versus verapamil [1]: more potent and safer then verapamil
- concentration effective against calcium-induced arrhythmias [1]: 3.75 mg/kg
- deleterious side effects [1]: without deleterious side effects
- Therapeutic Index (LD50/ED50) [2]: 2.7
- potency against chloroform/anoxia-induced arrhythmia versus quinidine [2]: as potent as quinidine
- ED50 ([2]; n = 40, 10 min): 68 mg/kg
- ED50 ([2]; n = 40, listed as Pr--MDI, 10 min): 68.0 mg/kg
- Antiarrhythmic Potency [2]: 0.99
- LD50 [3]: 185 mg/kg
- effect on frequency-force profile/relation of the stimulated left atrium ([4]; 3×10^-4 M): virtually identical to that of the butyl homolog
- overall effect on mechanical and electrical behavior of atria ([4]; 10^-8 to 3×10^-4 M): generally similar to those of bu-MDI
- relaxation of the aortic tissue [6]: relaxed the aortic tissue
- comparative vasodilator activity, norepinephrine-treated tissue [6]: considerably more active than Q-pr-MDI
- IC50 [6]: 78.2 µM
- IC50 [7]: 21.4 µM
- toxicity [8]: remarkable lack of toxicity
